Measured values published in US11382907B2, “Methods and compositions for treating aging-associated impairments using CCR3-inhibitors” (Alkahest, Inc., priority 2017, dated 2022).
“Also recorded” adds a separate entry of the source.

Tests used:
[1] = test system: twenty-four-month-old C57 mice; assay: T maze test in aged mice; format: in vivo; conditions: 4 weeks continuous infusion by osmotic pump
Method: The Water Maze was filled with water at least 24 hours prior to the test to allow it to reach room temperature. The water was dyed with white latex paint to make the animals visible for tracking and to allow for the use of a hidden platform. Two distinct visual cues were placed at the end of both T-arms of the T-Maze insert. On day 1 animals were given 4 trials each with a visible platform and a 30 min inter-trial interval. Animals were given 60 seconds to reach the platform. […] The goal arm was switched after every third mouse and both treatment groups had equal numbers of right and left turn goal arms. After each trial the mice were placed in an empty cage with blue pads and allowed to dry off under a red light lamp before being placed back into their home cage. Day 2 is the testing day, where animals are subjected to the same test of 4 trials each and a 30 min inter trial interval, but with a hidden platform. Animals were scored for right or wrong choice and for latency to reach the platform, and a binomial test was conducted to compare success rates between control and compound-treated mice. All trials were recorded using TopScan.
Twenty-four-month-old C57 mice were treated for 4 weeks with continuous infusion of Compound 1 or vehicle by Alzet osmotic pump, which were implanted to continuously deliver the two treatments. […]

CCR3 = biological target: T1, CCR3 (Mus musculus, UniProt P51678); assay: cell line receptor binding (Ki for the compound in mice); conditions: determined by cell line receptor binding
T1 construct: host or cells: unnamed cell line
T1 sequence (P51678 1-359): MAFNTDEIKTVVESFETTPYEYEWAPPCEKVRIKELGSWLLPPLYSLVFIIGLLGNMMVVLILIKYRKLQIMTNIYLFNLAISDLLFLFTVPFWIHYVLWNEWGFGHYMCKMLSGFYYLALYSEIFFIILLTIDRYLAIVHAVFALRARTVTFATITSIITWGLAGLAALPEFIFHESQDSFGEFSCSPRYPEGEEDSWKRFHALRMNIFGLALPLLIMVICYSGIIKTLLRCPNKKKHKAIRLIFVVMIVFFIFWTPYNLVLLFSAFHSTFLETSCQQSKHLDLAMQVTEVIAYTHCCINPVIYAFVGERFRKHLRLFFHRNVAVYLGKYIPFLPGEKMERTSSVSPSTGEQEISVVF

blood eosinophils = assay: Blood eosinophils in aged mice (FACS); format: in vivo, C57Bl/6 mice; conditions: 23-month-old mice, 30 mg/kg SQ BID 30 days, subset n=2, 5
Method: 200 uL of whole blood was collected during perfusion and shipped to Charles River Clinical Pathology Services (Shrewsbury, Mass.) for hematology analysis of eosinophil count by FACS (fluorescence activated cell sorter).
23-month-old C57Bl/6 mice were dosed with either vehicle control or Compound 1 subcutaneously twice daily for 30 days, and then sacrificed on the day of the last injection.
Treatment Groups: • Treatment Group 1a, Vehicle treatment: Aged C57Bl/6 mice (n=9), aged 23 months, received twice daily (BID) subcutaneous (SQ) treatment of vehicle solution for 30 days. • Treatment Group 3, Compound 1 treatment: Aged C57Bl/6 mice (n=18), aged 23 months, received twice daily (BID) subcutaneous (SQ) treatment of Compound 1, 30 mg/kg, for 30 days.

aged C57Bl/6 mice = assay: Open Field test in aged mice; format: in vivo; conditions: 23-month-old mice; 30 mg/kg SQ BID 21 days, tested three weeks later
Method: (§1) Open Field is used to evaluate general locomotor activity and exploratory behavior in a novel environment. Mice are brought to the experimental room for at least 30 min for acclimation to the experimental room conditions (dim lighting) prior to testing. The testing arena consists of a 50 cm×50 cm square arena. Mice are placed in the center of an arena and tracked for 15 minutes. Time spent in the peripheral and centers zones is analyzed, along with rearing behavior. 70% ethanol is used to clean all surfaces between trials.
23-month-old C57Bl/6 mice were dosed with either vehicle control or Compound 1 subcutaneously twice daily for 21 days. Three weeks later, mice were subjected to behavior testing, and sacrificed the day following the last behavior test.

[2] = test system: human eosinophils activated by human eotaxin-1; assay: Eosinophil shape change (ESC) assay (FACS, whole blood); format: cell-based; conditions: whole blood from humans treated with Compound 1, incubated with human recombinant eotaxin-1
Method: The ESC determines the shape change of human eosinophils activated by human eotaxin-1 (PreProTech, Rocky Hill, N.J.) compared to native eosinophils. The change is detected as the change in the forward-scatter measured by FACS (fluorescence activated cell sorter). The mean forward scatter of the autofluorescence (eosinophil) population for each sample was determined in conjunction with the mean of each set of sample triplicates. Methods of determining ESC have been previously described and are known in the art.
Whole blood from humans treated with Compound 1 was incubated with human recombinant eotaxin-1 to trigger eosinophil shape change (FIG. 34A) or CCR3 receptor internalization (FIG. 34B).

[3] = test system: three-month-old C57 mice treated with LPS; assay: Open Field test (anxiety) in mice given daily LPS; format: in vivo; conditions: 3-month-old mice; daily LPS 0.5 mg/kg IP; 30 mg/kg PO BID, after 1 week
Method: as §1
Three-month-old C57 mice were given daily doses of lipopolysaccharide (LPS) 0.5 mg/kg IP to induce inflammation and treated with Compound 1 for up to 4 weeks.
Treatment Groups: • Treatment Group 1, Vehicle treatment: 3-month-old C57 mice (n=10) received daily IP injection of LPS for 7 weeks and twice daily (BID) oral gavage (PO) treatment of vehicle solution for up to 4 weeks. • Treatment Group 2, Vehicle treatment and Oxazolone treatment: 3-month-old C57 mice (n=10) received daily IP injection of LPS for 7 weeks and twice daily (BID) oral gavage (PO) treatment of vehicle solution for up to 4 weeks. • Treatment Group 3, Compound 1 treatment and Oxazolone treatment: 3-month-old C57 mice (n=9) received daily IP injection of LPS for 7 weeks and twice daily (BID) oral gavage (PO) treatment of Compound 1, 30 mg/kg, for up to 4 weeks.

Compound: Cc1cc(C(=O)N(C)C)cc(NC(=O)[C@H]2CCC(=O)N2C2CCN(Cc3ccc(Cl)c(C)c3)CC2)n1 [Compound 1]
- T maze success versus vehicle (binomial test) [1]: succeeded more than vehicle-treated mice
- Ki (CCR3): 124 nM
- blood eosinophils (percentage of WBC count) (blood eosinophils): strong trend towards decreased blood eosinophils; also recorded: decreased an endogenous age-related increase in blood eosinophils
- Open Field distance travelled (aged C57Bl/6 mice): strong trends towards improvement
- Open Field velocity (aged C57Bl/6 mice): strong trends towards improvement
- inhibition of eosinophil shape change versus plasma Compound 1 concentration [2]: robust concentration-dependent effect
- anxiety in the Open Field [3]: strongly decreased the increased anxiety; also recorded: decreased the LPS-induced anxiety
